Test results from patent publication US10414763B2 (CANCER RESEARCH TECHNOLOGY LIMITED, priority 2014, dated 2019).

Target: T1, full-length human PKCι (Homo sapiens, UniProt P41743)
T1 construct: Recombinant, full-length human PKCι expressed in Sf21 insect cells is also commercially available; purchased EMD Millipore; host or cells: Sf21 insect cells (baculovirus)
T1 sequence (P41743 1-596): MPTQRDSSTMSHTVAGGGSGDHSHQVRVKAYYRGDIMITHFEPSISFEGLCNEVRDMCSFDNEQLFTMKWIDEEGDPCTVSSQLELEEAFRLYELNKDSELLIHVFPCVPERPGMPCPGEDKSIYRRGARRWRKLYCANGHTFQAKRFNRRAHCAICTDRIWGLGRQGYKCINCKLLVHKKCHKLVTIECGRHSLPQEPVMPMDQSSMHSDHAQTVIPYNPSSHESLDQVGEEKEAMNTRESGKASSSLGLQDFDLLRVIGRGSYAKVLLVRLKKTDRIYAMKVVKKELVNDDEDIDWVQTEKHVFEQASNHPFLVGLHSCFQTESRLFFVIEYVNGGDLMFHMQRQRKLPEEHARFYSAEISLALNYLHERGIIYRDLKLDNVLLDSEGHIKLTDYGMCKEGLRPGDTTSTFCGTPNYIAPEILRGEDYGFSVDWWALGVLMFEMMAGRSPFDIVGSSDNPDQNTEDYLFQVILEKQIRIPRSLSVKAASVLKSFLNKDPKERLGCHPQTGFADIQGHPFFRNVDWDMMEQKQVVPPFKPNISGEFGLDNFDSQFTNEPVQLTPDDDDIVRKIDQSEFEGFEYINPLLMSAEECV
Assay: PKCι IC50 IMAP fluorescence polarisation assay, full-length enzyme, 150 μM ATP
Assay type: biochemical
Settings: read-out: IC50 in IMAP assay against full length PKCi at 150 μM ATP
Summary of the method: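 IMAP fluorescence polarisation kinase assay: 15 pM baculovirus-expressed human PKCiota with 100 nM FAM-pseudosubstrate peptide and 150 μM ATP, 1 h at 25 °C. IMAP detection reagent then 2 h at 25 °C before FP measurement. Inhibition referenced to no-compound and no-enzyme controls for IC50 fitting.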

Q: Which IC50 does the source give for `C[C@@H]1CNCC[C@H]1Nc1nc(-c2ccnc(Nc3nc(F)ccc3F)c2)nc2cncc(C3CC3)c12` (single isomer, unassigned) [Example 335, 5-Cyclopropyl-2-[2-[(3,6-difluoro-2-pyridyl)amino]-4-pyridyl]-N-[(3R,4R)-3-methyl-4-piperidyl]pyrido[3,4-d]pyrimidin-4-amine or enantiomer] here?
A: < 100 nM

Q: How did the IC50 turn out when `C[C@@H]1CNCC[C@H]1Nc1nc(-c2ccnc(Nc3ncccc3F)c2)nc2cncc(C3CCC3)c12` (single isomer, unassigned) [Example 341, 5-Cyclobutyl-2-[2-[(3-fluoro-2-pyridyl)amino]-4-pyridyl]-N-[(3R,4R)-3-methyl-4-piperidyl]pyrido[3,4-d]pyrimidin-4-amine or enantiomer] was run?
A: < 100 nM

Q: `C[C@H]1CNCC[C@@H]1Nc1nc(-c2ccnc(Nc3ncccc3F)c2)nc2cncc(C3CCC3)c12` (single isomer, unassigned) [Example 342, 5-Cyclobutyl-2-[2-[(3-fluoro-2-pyridyl)amino]-4-pyridyl]-N-[(3S,4S)-3-methyl-4-piperidyl]pyrido[3,4-d]pyrimidin-4-amine or enantiomer] was tested. Which IC50 did it give?
A: < 100 nM

Q: `CC1(C)CNCCC1Nc1nc(-c2ccnc3[nH]c(-c4cc(Cl)ccc4Cl)cc23)nc2cncc(C3CC3)c12` (stereo in doubt) [Example 353, {5-Cyclopropyl-2-[2-(2,5-dichloro-phenyl)-1H-pyrrolo[2,3-b]pyridin-4-yl]-pyrido[3,4-d]pyrimidin-4-yl}-((S)-3,3-dimethyl-piperidin-4-yl)-amine] was tested. Which IC50 did it give?
A: < 100 nM

Q: With `Cc1cn2c(n1)[nH]c1nccc(-c3nc(N4CCNCC4)c4c(C5CCC5)cncc4n3)c12` [Example 3, 4-(5-Cyclobutyl-4-piperazin-1-yl-pyrido[3,4-d]pyrimidin-2-yl)-2-methyl-8H-1,3a,7,8-tetraaza-cyclopent[a]indene] as the compound, how does the IC50 read?
A: 100 to 1000 nM

Q: Which IC50 does the source give for `OC[C@@H]1CNCCN1c1nc(-c2ccnc3[nH]c(C(F)(F)F)cc23)nc2cncc(C3CC3)c12` [Example 4, {(S)-1-[5-Cyclopropyl-2-(2-trifluoromethyl-1H-pyrrolo[2,3-b]pyridin-4-yl)-pyrido[3,4-d]pyrimidin-4-yl]-piperazin-2-yl}-methanol] here?
A: 100 to 1000 nM

Q: Which IC50 does the source give for `OC[C@@H]1CNCCN1c1nc(-c2ccnc3[nH]c(C(F)(F)F)cc23)nc2cncc(C3CCC3)c12` [Example 5, {(S)-1-[5-Cyclobutyl-2-(2-trifluoromethyl-1H-pyrrolo[2,3-b]pyridin-4-yl)-pyrido[3,4-d]pyrimidin-4-yl]-piperazin-2-yl}-methanol] here?
A: 1000 to 10000 nM

Q: How did the IC50 turn out when `OC[C@H]1CNCCN1c1nc(-c2ccnc3[nH]c(C(F)(F)F)cc23)nc2cncc(C3CC3)c12` [Example 6, {(R)-1-[5-Cyclopropyl-2-(2-trifluoromethyl-1H-pyrrolo[2,3-b]pyridin-4-yl)-pyrido[3,4-d]pyrimidin-4-yl]-piperazin-2-yl}-methanol] was run?
A: 100 to 1000 nM

Q: With `OC[C@H]1CNCCN1c1nc(-c2ccnc3[nH]c(C(F)(F)F)cc23)nc2cncc(C3CCC3)c12` [Example 7, {(R)-1-[5-Cyclobutyl-2-(2-trifluoromethyl-1H-pyrrolo[2,3-b]pyridin-4-yl)-pyrido[3,4-d]pyrimidin-4-yl]-piperazin-2-yl}-methanol] as the compound, how does the IC50 read?
A: 100 to 1000 nM

Q: For `c1ccc2c(c1)[nH]c1nccc(-c3nc(N4CC[C@@H]5CNC[C@@H]54)c4c(C5CCC5)cncc4n3)c12` [Example 9, 4-((R)-5-Cyclobutyl-4-(R)-hexahydro-pyrrolo[3,4-b]pyrrol-1-yl-pyrido[3,4-d]pyrimidin-2-yl)-9H-pyrido[2,3-b]indole], which IC50 is on record?
A: < 100 nM

Q: `c1ccc2c(c1)[nH]c1nccc(-c3nc(N4CC[C@H]5CNC[C@H]54)c4c(C5CCC5)cncc4n3)c12` [Example 10, 4-((S)-5-Cyclobutyl-4 (S)-hexahydro-pyrrolo[3,4-b]pyrrol-1-yl-pyrido[3,4-d]pyrimidin-2-yl)-9H-pyrido[2,3-b]indole] was tested. Which IC50 did it give?
A: < 100 nM

Q: For `N[C@H]1C[C@H](Nc2nc(-c3ccnc4[nH]c5ccccc5c34)nc3cncc(C4CCC4)c23)C1` [Example 11, trans-N-[5-Cyclobutyl-2-(9H-pyrido[2,3-b]indol-4-yl)-pyrido[3,4-d]pyrimidin-4-yl]-cyclobutane-1,3-diamine], which IC50 is on record?
A: < 100 nM

Q: How did the IC50 turn out when `CC1(c2cc3c(-c4nc(N[C@H]5CC[C@H](N)CC5)c5c(C6CC6)cncc5n4)ccnc3[nH]2)CC1(F)F` (stereo partly drawn) [Example 12, trans-N-{5-Cyclopropyl-2-[2-(2,2 difluoro-1-methyl-cyclopropyl)-1H-pyrrolo[2,3-b]pyridin-4-yl]-pyrido[3,4-d]pyrimidin-4-yl}-cyclohexane-1,4-diamine] was run?
A: < 100 nM

Q: Which IC50 does the source give for `OC1(c2cc3c(-c4nc(N5CCNCC5)c5c(C6CCC6)cncc5n4)ccnc3[nH]2)CCSC1` (centres unmarked) [Example 13, 3-[4-(5-Cyclobutyl-4-piperazin-1-yl-pyrido[3,4-d]pyrimidin-2-yl)-1H-pyrrolo[2,3-b]pyridin-2-yl]-tetrahydro-thiophen-3-ol] here?
A: < 100 nM

Q: For `c1ccc(Sc2cc3c(-c4nc(N5CCNCC5)c5c(C6CC6)cncc5n4)ccnc3[nH]2)cc1` [Example 14, 5-Cyclopropyl-2-(2-phenylsulfanyl-1H-pyrrolo[2,3-b]pyridin-4-yl)-4-piperdzin-1-yl-pyrido[3,4-d] pyrimidine], which IC50 is on record?
A: < 100 nM

Q: With `CN(c1nc(-c2ccnc3[nH]c(Sc4ccccc4)cc23)nc2cncc(C3CC3)c12)C1CCNCC1` [Example 15, [5-Cyclopropyl-2-(2-phenylsulfanyl-1H-pyrrolo[2,3-b]pyridin-4-yl)-pyrido[3,4-d]pyrimidin-4-yl]-methyl-piperidin-4-yl amine] as the compound, how does the IC50 read?
A: < 100 nM

Q: Which IC50 does the source give for `CSc1cc2c(-c3nc(N4CCNCC4)c4c(C5CC5)cncc4n3)ccnc2[nH]1` [Example 16, 5-Cyclopropyl-2-(2-methylsulfanyl-1H-pyrrolo[2,3-b]pyridin-4-yl)-4-piperazin-1-yl pyrido[3,4-d]pyrimidine] here?
A: < 100 nM

Q: How did the IC50 turn out when `CSc1cc2c(-c3nc(N4CCNCC4)c4c(C5CCC5)cncc4n3)ccnc2[nH]1` [Example 17, 5-Cyclobutyl-2-(2-methylsulfanyl-1H-pyrrolo[2,3-b]pyridin-4-yl)-4-piperazin-1-yl pyrido[3,4-d] pyrimidine] was run?
A: < 100 nM

Q: For `Clc1ccc(-c2cc3c(-c4nc(N5CCNCC5)c5c(C6CC6)cncc5n4)ccnc3[nH]2)c(Cl)c1` [Example 18, 5-Cyclopropyl-2-[2-(2,4-dichloro-phenyl)-1H-pyrrolo[2,3-b]pyridin-4-yl]-4-piperazin-1-yl-pyrido[3,4-d] pyrimidine], which IC50 is on record?
A: < 100 nM

Q: `FC(F)(F)c1cc2c(-c3nc(N4CC[C@H]5CNC[C@H]54)c4c(C5CC5)cncc4n3)ccnc2[nH]1` [Example 20, 5-Cyclopropyl-4-(3aS,6aS)-hexahydro-pyrrolo[3,4-b]pyrrol-1-yl-2-(2-trifluoromethyl-1H-pyrrolo[2,3-b]pyridin-4-yl)-pyrido[3,4-d]pyrimidine] was tested. Which IC50 did it give?
A: < 100 nM

Q: For `FC(F)(F)c1cc2c(-c3nc(N4CC[C@@H]5CNC[C@@H]54)c4c(C5CC5)cncc4n3)ccnc2[nH]1` [Example 21, 5-Cyclopropyl-4-(3aR,6aR)-hexahydro-pyrrolo[3,4-b]pyrrol-1-yl-2-(2-trifluoromethyl-1H-pyrrolo[2,3-b]pyridin-4-yl)-pyrido[3,4-d]pyrimidine], which IC50 is on record?
A: < 100 nM

Q: For `c1ccc2c(c1)[nH]c1nccc(-c3nc(NC4CCCNCC4)c4c(C5CCC5)cncc4n3)c12` (centres unmarked) [Example 22, Azepan-4-yl-[5-cyclobutyl-2-(9H-pyrido[2,3-b]indol-4-yl)-pyrido[3,4-d]pyrimidin-4-yl]-amine], which IC50 is on record?
A: < 100 nM

Q: `COc1ccccc1-c1cc2c(-c3nc(N(C)C4CCNCC4(C)C)c4c(C5CC5)cncc4n3)ccnc2[nH]1` (centres unmarked) [Example 23, {5-Cyclopropyl-2-[2-(2-methoxy-phenyl)-1H-pyrrolo[2,3-b]pyridin-4-yl]-pyrido[3,4-d]pyrimidin-4-yl}-(3,3-dimethyl-piperidin-4-yl)-methyl-amine] was tested. Which IC50 did it give?
A: < 100 nM

Q: `CN(c1nc(-c2ccnc3[nH]c(-c4ccc(Cl)cc4Cl)cc23)nc2cncc(C3CC3)c12)C1CCNCC1(C)C` (centres unmarked) [Example 24, {5-Cyclopropyl-2-[2-(2,4-dichloro-phenyl)-1H-pyrrolo[2,3-b]pyridin-4-yl]-pyrido[3,4-d]pyrimidin-4-yl}-(3,3-dimethyl-piperidin-4-yl)-methyl-amine] was tested. Which IC50 did it give?
A: < 100 nM

Q: How did the IC50 turn out when `Clc1ccccc1-c1cc2c(-c3nc(N[C@H]4[C@@H]5CC[C@H]4CNC5)c4c(C5CC5)cncc4n3)ccnc2[nH]1` [Example 25, (1R,5S,8R)-3-Aza-bicyclo[3.2.1]oct-8-yl-{2-[2-(2-chloro-phenyl)-1H-pyrrolo[2,3-b]pyridin-4-yl]-5-cyclopropyl-pyrido[3,4-d]pyrimidin-4-yl}-amine] was run?
A: 100 to 1000 nM

Q: For `Clc1ccccc1-c1cc2c(-c3nc(N[C@@H]4[C@@H]5CC[C@H]4CNC5)c4c(C5CC5)cncc4n3)ccnc2[nH]1` [Example 26, (1R,5S,8S)-3-Aza-bicyclo[3.2.1]oct-8-yl-{2-[2-(2-chloro-phenyl)-1H-pyrrolo[2,3-b]pyridin-4-yl]-5-cyclopropyl-pyrido[3,4-d]pyrimidin-4-yl}-amine], which IC50 is on record?
A: 100 to 1000 nM
